Consider 1 compound from US10973810B2, “Methods for the treatment of neurological disorders” (Yumanity Therapeutics, Inc., priority 2017, dated 2021).

Structures are written as SMILES.

The test system of this assay is alpha-synuclein transfected U2OS cells. The experiment in a line: U2OS ATP assay of alpha-synuclein toxicity. Format: cell-based, human. To be noted: 72 h after transfection/treatment; titration; normalized to DMSO control. How it is done:
U2OS cells were transfected with empty vector control (“pcDNA”) or alpha-synuclein (“α-synuclein/pcDNA”) in combination with a scrambled (SCR) siRNA control (50 nM), or human SCD5 siRNA (10, 25 or 50 nM). (FIG. 12A) Cellular heath was assessed 48 h after transfection by evaluating ATP levels. Cell toxicity in the alpha-synuclein plus SCR siRNA was set as the floor of the assay, and then all samples were normalized to pcDNA with […] (set to 100%) to calculate the normalized percent rescue. Bars depict mean values of triplicate determinations; error bars indicate standard deviation. A two-tailed t-test was used to compare control conditions with SCR or SCD5 siRNA (*p 0.05). Cells transfected with alpha-synuclein were analyzed together by ANOVA with Dunnett's post-test to correct for multiple comparisons (**p 0.01, ****p 0.0001). Significance is shown for the comparison of each alpha-synuclein plus SCD5 siRNA concentration compared against the alpha-synuclein plus SCR control. (FIG. 12B) Quantitative RT-PCR was utilized to confirm the levels of SCD5 mRNA. […]
Powders of reference SCD inhibitors (CAY10566, A939572 and MF-438) were resuspended and serial diluted in DMSO. […] ATP content was then measured using the CellTiter-Glo® kit (Promega) with luminescence signals measured on an EnVision multimode plate reader (Perkin Elmer).

For the compound `Cc1nnc(-c2ccc(N3CCC(Oc4cc(F)ccc4Cl)CC3)nn2)o1` [CAY10566], the “cellular ATP levels in alpha-synuclein transfected U2OS cells” value is listed as “significantly reversed alpha-synuclein-dependent decreases in ATP levels”.
